# According to patent US20200171065A1, “METHOD FOR TREATING LIVER DISEASE WITH KINSENOSIDE” (HUAZHONG UNIVERSITY OF SCIENCE AND TECHNOLOGY, priority 2017, published 2020):
# Entries after “also recorded” stand apart in the source; their conditions may differ. Like-named read-outs stand apart in the source and are kept apart here.
# Columns and labels:
# [1] = tested on: hepatic stellate cells (HSC-T6) activated by TGF-β1; assay: Hepatic stellate cells (HSC-T6) activated by TGF-β1; type: cell-based; conditions: different concentrations of KD
# From the text: HSCs are important cells involved in liver fibrosis. The activation of HSCs is a key element of the development of liver fibrosis, and its apoptosis can reverse liver fibrosis. Different concentrations of KD were used to […] the hepatic stellate cells (HSC-T6) activated by TGF-β1.
# [2] = tested on: SD mice with ANIT induced intrahepatic cholestasis; assay: ANIT-induced intrahepatic cholestasis; type: in vivo
# Procedure: 42 SPF SD mice were purchased and raised in the SPF experimental animal center of Tongji Medical College of Huazhong University of Science and Technology. They were provided with standard diet and drinking water. The room temperature was controlled at 23±2° C. After 3 days of adaptive feeding, they were given drugs by intragastric administration. 42 SD mice were randomly divided into 7 groups (normal control group, ANIT model group, KD low-dose group, KD medium dose group, KD high-dose group, UDCA positive control group and KD negative control group), 6 mice in each group were weighed and recorded daily. […] Thereafter, the drug was given again every 24 hours for 3 times, and the animals in each group were fasted (water was provided) after the third time. 72 hours later, the animals were killed and samples were collected.
# [3] = tested on: C57BL/6J mice with alcoholic fatty liver; assay: Alcoholic fatty liver (5% alcoholic Lieber-DeCarli liquid diet); type: in vivo
# Procedure: C57BL/6J mice aged 7-8 weeks were raised in the SPF experimental animal center of Tongji Medical College of Huazhong University of Science and Technology. They were provided with standard diet and drinking water. The room temperature was controlled at 23±2° C. After 7 days of adaptive feeding, they were given drugs by intragastric administration. […] The mice were fed with a 5% alcoholic Lieber-DeCarli liquid diet and developed alcoholic fatty liver disease. The mice were administered with alcohol and drugs. Spherically, drinking water were administered to the control group and the model group, and different doses were administered to the dose groups.
# [4] = tested on: C57BL/6 mice with HFFD nonalcoholic fatty liver; assay: Nonalcoholic fatty liver induced by high-fat and high fructose diet (HFFD); type: in vivo
# Procedure: 60 SPF male C57BL/6 mice aged 4 weeks were raised in the SPF experimental animal center of Tongji Medical College of Huazhong University of Science and Technology. They were provided with standard diet and drinking water. The room temperature was controlled at 23±2° C. After 7 days of adaptive feeding, the mice were randomly divided into a control group with normal diet and a high-fat and high fructose diet group (40% fat, 40% fructose, 20% protein, HFFD). […] The mice were fed according to the groups, and the control group and the model group were fed with the same dose of normal saline for 4 weeks. […] The development of nonalcoholic fatty liver disease is closely related to the lipid levels of the liver and serum.
# [5] = tested on: FVB/N mice with serine/threonine kinase (AKT) overexpressed in the liver (NAFL-NASH-liver fibrosis); conditions: for Diameter of hepatic portal vein / Diameter of inferior vena cava / Length of the spleen / Oblique diameter of right lobe of liver / Thickness of the left lobe of liver / Thickness of the spleen: type B ultrasound
# Procedure: The serine/threonine kinase (AKT) and transposase plasmids were injected into the liver of the mice by a transposition system through hydrodynamics. The serine/threonine kinase was specifically overexpressed in the liver, and the mice except the control group were modeled. One week later, nonalcoholic fatty liver (NAFL) was formed; two weeks later, steatohepatitis (NASH) was formed; and four weeks later, a primary hepatic fibrosis model was established. In the formation of NAFL-NASH-liver fibrosis, the therapeutic effect of KD was observed.
# [6] = low, medium and high dose of KD
# [7] = Liver fibrosis stage, KD 30 mg/kg
# [8] = high, medium and low dose groups
smiles,measurement,setting,value
O=C1C[C@@H](O[C@@H]2O[C@H](CO)[C@@H](O)[C@H](O)[C@H]2O)CO1 [KD],apoptosis of HSC-T6,[1],promote its apoptosis
same,cell cycle of HSC-T6,[1],could block the cell cycle of the HSC-T6 in the G0/G1 phase
same,proliferation of HSC-T6,[1],inhibit its proliferation
same,plasma biochemical indexes,[2]; 100 mg/kg KD to normal mice,did not change
same,plasma color,"[2]; KD 50, 100, 200 mg/kg or UDCA 80 mg/kg by gavage",turned light yellow similar to that of the normal control group
same,expression of Fxr and Cyp7a1 genes,"[2]; cholestasis mice, high-dose KD",can significantly up regulate the expression of Fxr and Cyp7a1 genes
same,"expression of Bsep, Mrp2 and Mrp3 genes","[2]; cholestasis mice, medium and high-dose KD","can significantly up regulate the expression of Bsep, Mrp2 and Mrp3 genes"
same,hepatic sinusoid and inflammatory cell infiltration (HE staining),"[2]; different doses of KD, UDCA treatment group",the expansion of hepatic sinusoid was improved and the infiltration of inflammatory cells was reduced
same,"plasma ALT, AST, AKP, TBIL and DBIL","[2]; low, medium and high doses of KD, 80 mg/kg UDCA","can significantly reduce ALT, AST, AKP, TBIL and DBIL"
same,plasma TBA,"[2]; medium and high doses of KD, 80 mg/kg UDCA",can significantly reduce TBA
same,ANIT-induced intrahepatic cholestasis liver injury (overall),"[2]; mouse, in vivo",can alleviate the liver injury induced by ANIT; also recorded: has a good therapeutic effect on ANIT-induced intrahepatic cholestasis liver injury
same,fat vacuoles / histopathological damage of liver (H&E staining),[3]; 40 and 20 mg/kg KD,could reduce histopathological damage of liver and reduce fat vacuoles in liver of mice; also recorded: fat vacuoles were reduced
same,SOD activity in the liver / oxidative stress injuries,[3]; AFL mice,increased the activity of superoxide dismutase (SOD) in the liver of AFL and ALF mice; also recorded: could reverse the oxidative stress injuries
same,serum ALT,[3]; AFL mice,decreased the serum alanine aminotransferase (ALT) of AFL and ALF mice
same,secretion of TNF-α and IL-6,[3]; high and medium dose groups,inhibited the secretion of TNF and IL6 in AFL and ALF; also recorded: reduced the secretion of the inflammatory cytokine TNF-α and IL-6
same,therapeutic effect on alcoholic fatty liver (overall),"[3]; mouse, in vivo",has a good therapeutic effect on alcoholic fatty liver and alcoholic liver fibrosis
same,free fatty acid level in the serum,[4]; each dose of KD,could significantly inhibit the level of free fatty acids; also recorded: could significantly inhibit the free fatty acid level in the serum
same,triglyceride in the liver,[4]; each dose of KD,could significantly inhibit the level of triglyceride in the liver
same,expression level of total macrophage marker molecule F4/80,[4]; high dose KD,inhibited the expression level of total macrophage marker molecule F4/80; also recorded: could inhibit the expression level of the total macrophage marker molecule F4/80
same,"liver lipid degeneration, size and number of lipid droplets (photos, H&E staining)","[4]; high, middle and low dose groups, 4 weeks",could significantly reduce liver lipid denaturation induced by high-fat and high-fructose diet and reduce the size and number of lipid droplets in liver; also recorded: could significantly reduce the lipid degeneration and inhibit the size and number of lipid droplets
same,secretion of anti-inflammatory cytokine IL-10 in serum,[4]; [6],promoted the secretion of the anti-inflammatory cytokine IL-10; also recorded: increase the secretion of anti-inflammatory cytokine IL-10
same,"secretion of proinflammatory cytokines IL-6, MCP-1, IFN-γ, TNF-α and IL-2 in serum",[4]; [6],"significantly inhibited the secretion of pro-inflammatory cytokines IL6, MCP-1, IFN-γ, TNF-α and IL-2; also recorded: can significantly inhibit the secretion of proinflammatory cytokines IL-6, MCP-1, IFN-γ, TNF-α and IL-2"
same,total cholesterol in liver and serum,"[4]; low, medium and high doses of KD",significantly inhibited; also recorded: significantly reduced
same,serum LDL level,[4]; low-dose KD,could significantly inhibit the level of serum LDL in mice
same,expression of COX-2 and M1-type macrophage molecules IL6 and IFN,[4]; medium and high dose KD,significantly inhibited the expression level of inflammatory molecule COX-2; also recorded: could significantly inhibit the expression level of inflammatory molecule COX-2 and the inflammatory M1-type macrophage molecules IL6 and IFN
same,"expression of M2-type macrophage marker molecules CD206, ARG1 and IL1β",[4]; medium and high dose KD,"promoted the expression of anti-inflammatory M2-type macrophage marker molecules CD206, ARG1 and IL1; also recorded: promote the expression of anti-inflammatory M2-type macrophage marker molecules CD206, ARG1 and IL1β"
same,"therapeutic effect on nonalcoholic fatty liver (overall, vs silymarin 50 mg/kg)","[4]; mouse, in vivo",the therapeutic effect was better than that of silymarin; also recorded: significantly better than that of silymarin; also recorded: has a good therapeutic effect on non-alcoholic fatty liver
same,liver histopathological damage (H&E staining),"[5]; 30, 20 and 10 mg/kg KD",could reduce liver histopathological damage
same,Diameter of hepatic portal vein,[5]; [7],0.65 ± 0.07 mm
same,Diameter of inferior vena cava,[5]; [7],1.15 ± 0.07 mm
same,Length of the spleen,[5]; [7],5.40 ± 0.71 mm
same,Oblique diameter of right lobe of liver,[5]; [7],8.35 ± 0.78 mm
same,Thickness of the left lobe of liver,[5]; [7],3.65 ± 0.49 mm
same,Thickness of the spleen,[5]; [7],1.50 ± 0.14 mm
same,Diameter of hepatic portal vein,"[5]; NAFL stage, KD 30 mg/kg",0.75 ± 0.07 mm
same,Diameter of inferior vena cava,"[5]; NAFL stage, KD 30 mg/kg",1.50 ± 0.14 mm
same,Length of the spleen,"[5]; NAFL stage, KD 30 mg/kg",5.40 ± 0.99 mm
same,Oblique diameter of right lobe of liver,"[5]; NAFL stage, KD 30 mg/kg",7.25 ± 0.21 mm
same,Thickness of the left lobe of liver,"[5]; NAFL stage, KD 30 mg/kg",4.35 ± 1.20 mm
same,Thickness of the spleen,"[5]; NAFL stage, KD 30 mg/kg",1.65 ± 0.07 mm
same,IFN-γ,"[5]; NASH, KD 10 mg/kg",36.71 ± 0.32^ΔΔ pg/mL
same,IL-2,"[5]; NASH, KD 10 mg/kg",101.31 ± 9.79^##Δ pg/mL
same,IL-10,"[5]; NASH, KD 10 mg/kg",66.84 ± 2.73 pg/mL
same,IL-12,"[5]; NASH, KD 10 mg/kg",127.64 ± 2.71 pg/mL
same,NO,"[5]; NASH, KD 10 mg/kg",56.22 ± 5.32^ΔΔ μmol/L
same,TNF-α,"[5]; NASH, KD 10 mg/kg",4.10 ± 0.04 pg/mL
same,IFN-γ,"[5]; NASH, KD 20 mg/kg",33.86 ± 0.65 pg/mL
same,IL-2,"[5]; NASH, KD 20 mg/kg",133.29 ± 4.57 pg/mL
same,IL-10,"[5]; NASH, KD 20 mg/kg",84.12 ± 0.23^##ΔΔ pg/mL
same,IL-12,"[5]; NASH, KD 20 mg/kg",123.05 ± 0.71 pg/mL
same,NO,"[5]; NASH, KD 20 mg/kg",51.38 ± 1.08^#ΔΔ μmol/L
same,TNF-α,"[5]; NASH, KD 20 mg/kg",3.03 ± 0.26^##ΔΔ pg/mL
same,IFN-γ,"[5]; NASH, KD 30 mg/kg",32.43 ± 0.98 pg/mL
same,IL-2,"[5]; NASH, KD 30 mg/kg",169.13 ± 13.10^##Δ pg/mL
same,IL-10,"[5]; NASH, KD 30 mg/kg",91.20 ± 0.56^##ΔΔ pg/mL
same,IL-12,"[5]; NASH, KD 30 mg/kg",106.38 ± 1.18^##Δ pg/mL
same,NO,"[5]; NASH, KD 30 mg/kg",48.15 ± 1.86^##ΔΔ μmol/L
same,TNF-α,"[5]; NASH, KD 30 mg/kg",2.35 ± 0.10^##ΔΔ pg/mL
same,serum ALT and AST,[5]; during development of liver fibrosis,decreased after KD treatment
same,expression of MMP-13 in the liver (qPCR),[5]; [8],promoted the expression of matrix metalloproteinase-13 (MMP-13)
same,"expression of α-SMA, Col I and TIMP-1 in the liver (qPCR)",[5]; [8],could effectively inhibit the expression
same,release of inflammatory response marker NO,[5]; [8],inhibited the release of the inflammatory response marker NO
same,secretion of IL-10 (Th2-type cells),[5]; [8],promoted the secretion of the inflammatory cytokine IL-10
same,"secretion of inflammatory cytokines IFN-γ, TNF-α and IL-2 (Th1)",[5]; [8],"reduced the secretion of the inflammatory cytokines IFN-γ, TNF-α and IL-2"
same,"width of the inferior vena cava, left lobe thickness, right lobe obliquity and spleen thickness (ultrasound)","[5]; high, middle and low dose groups","can significantly reduce the width of the inferior vena cava, left lobe thickness, right lobe obliquity and spleen thickness"
same,IFN-γ,"[5]; liver fibrosis, KD 10 mg/kg",85.76 ± 8.25 pg/mL
same,IL-2,"[5]; liver fibrosis, KD 10 mg/kg",101.73 ± 0.70^##ΔΔ pg/mL
same,IL-10,"[5]; liver fibrosis, KD 10 mg/kg",128.28 ± 24.84 pg/mL
same,IL-12,"[5]; liver fibrosis, KD 10 mg/kg",253.62 ± 7.20 pg/mL
same,NO,"[5]; liver fibrosis, KD 10 mg/kg",52.13 ± 1.40 µmol/L
same,TNF-α,"[5]; liver fibrosis, KD 10 mg/kg",13.46 ± 9.31^ΔΔ pg/mL
same,IFN-γ,"[5]; liver fibrosis, KD 20 mg/kg",57.19 ± 1.65^##ΔΔ pg/mL
same,IL-2,"[5]; liver fibrosis, KD 20 mg/kg",104.72 ± 0.71^##ΔΔ pg/mL
same,IL-10,"[5]; liver fibrosis, KD 20 mg/kg",206.66 ± 1.91^##ΔΔ pg/mL
same,IL-12,"[5]; liver fibrosis, KD 20 mg/kg",174.77 ± 2.72 pg/mL
same,NO,"[5]; liver fibrosis, KD 20 mg/kg",54.11 ± 15.40 µmol/L
same,TNF-α,"[5]; liver fibrosis, KD 20 mg/kg",8.41 ± 0.52 pg/mL
same,IFN-γ,"[5]; liver fibrosis, KD 30 mg/kg",53.38 ± 1.65^##ΔΔ pg/mL
same,IL-2,"[5]; liver fibrosis, KD 30 mg/kg",93.91 ± 2.05^##ΔΔ pg/mL
same,IL-10,"[5]; liver fibrosis, KD 30 mg/kg",140.44 ± 7.64 pg/mL
same,IL-12,"[5]; liver fibrosis, KD 30 mg/kg",242.08 ± 5.44 pg/mL
same,NO,"[5]; liver fibrosis, KD 30 mg/kg",59.06 ± 1.40 µmol/L
same,TNF-α,"[5]; liver fibrosis, KD 30 mg/kg",2.38 ± 0.57 pg/mL
same,fiber formation (Masson staining),"[5]; mouse, in vivo",had inhibitory effect on the fiber formation
same,"oxidative stress injuries (MDA, SOD)","[5]; mouse, in vivo",could reverse these oxidative stress injuries
same,"secretion of ALT, AST and inflammatory cytokines","[5]; mouse, in vivo","did not affect the secretion of ALT, AST and inflammatory cytokines"
same,shear wave velocity of SWE (liver),"[5]; mouse, in vivo",could significantly reduce the shear wave velocity
